{"source": "ChEMBL document CHEMBL1201862", "about": "“PubChem BioAssay data set” (2004)", "assay_in_all_cases": "inhibition of tumour cell growth, NCI panel, 48 h", "key": {"786-0": {"tested_on": "786-0"}, "CCRF-CEM": {"tested_on": "CCRF-CEM"}, "DU-145": {"tested_on": "DU-145"}, "HCT-15": {"tested_on": "HCT-15"}, "Hs-578T": {"tested_on": "Hs-578T"}, "LOX IMVI": {"tested_on": "LOX IMVI"}, "M14": {"tested_on": "M14"}, "MCF7": {"tested_on": "MCF7"}, "Malme-3M": {"tested_on": "Malme-3M"}, "NCI-H226": {"tested_on": "NCI-H226"}, "NCI-H522": {"tested_on": "NCI-H522"}, "OVCAR-5": {"tested_on": "OVCAR-5"}, "SK-MEL-2": {"tested_on": "SK-MEL-2"}, "SK-OV-3": {"tested_on": "SK-OV-3"}, "SNB-19": {"tested_on": "SNB-19"}, "SNB-75": {"tested_on": "SNB-75"}, "SR": {"tested_on": "SR"}, "SW-620": {"tested_on": "SW-620"}, "TK-10": {"tested_on": "TK-10"}, "HCC 2998": {"tested_on": "HCC 2998"}}, "note": "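In this assay, cells in 96-well plates receive the compound at five concentrations for 48 hours. Endpoints are linearly interpolated between the surrounding concentrations. GI50 is the concentration that inhibits growth by half.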 The source made the active and inactive calls. No stated cut-off is given here; in the data, active = GI50 up to about 1.1 µM and inactive = higher.", "data": [{"smiles": "CCCc1cn2c(/C=N/NC(=N)N)c(-c3ccc(Cl)c([N+](=O)[O-])c3)nc2s1", "values": [{"measurement": "GI50", "setting": "786-0", "value": "1.8 µM (inactive)"}, {"measurement": "GI50", "setting": "CCRF-CEM", "value": "0.192 µM (active)"}, {"measurement": "GI50", "setting": "DU-145", "value": "1.77 µM (inactive)"}, {"measurement": "GI50", "setting": "HCT-15", "value": 1.7, "unit": "µM"}, {"measurement": "GI50", "setting": "Hs-578T", "value": "2.01 µM (inactive)"}, {"measurement": "GI50", "setting": "LOX IMVI", "value": "1.7 µM (inactive)"}, {"measurement": "GI50", "setting": "M14", "value": "1.91 µM (inactive)"}, {"measurement": "GI50", "setting": "MCF7", "value": "1.94 µM (inactive)"}, {"measurement": "GI50", "setting": "Malme-3M", "value": "1.68 µM (inactive)"}, {"measurement": "GI50", "setting": "NCI-H226", "value": "1.99 µM (inactive)"}, {"measurement": "GI50", "setting": "NCI-H522", "value": "1.98 µM (inactive)"}, {"measurement": "GI50", "setting": "OVCAR-5", "value": "1.55 µM (inactive)"}, {"measurement": "GI50", "setting": "SK-MEL-2", "value": "1.71 µM (inactive)"}, {"measurement": "GI50", "setting": "SK-OV-3", "value": "1.5 µM (inactive)"}, {"measurement": "GI50", "setting": "SNB-19", "value": "1.5 µM (inactive)"}, {"measurement": "GI50", "setting": "SNB-75", "value": "1.74 µM (inactive)"}, {"measurement": "GI50", "setting": "SR", "value": "1.25 µM (inactive)"}, {"measurement": "GI50", "setting": "SW-620", "value": "1.07 µM (active)"}, {"measurement": "GI50", "setting": "TK-10", "value": "1.54 µM (inactive)"}]}, {"smiles": "COC(=O)CCc1cc(OC)c2oc(-c3ccc(OC)c(OC)c3)c(CO)c2c1", "values": [{"measurement": "GI50", "setting": "786-0", "value": "> 100 µM (inactive)"}, {"measurement": "GI50", "setting": "CCRF-CEM", "value": "> 100 µM (inactive)"}, {"measurement": "GI50", "setting": "DU-145", "value": "> 100 µM (inactive)"}, {"measurement": "GI50", "setting": "HCC 2998", "value": "1.7 µM (inactive)"}, {"measurement": "GI50", "setting": "HCT-15", "value": "> 100", "unit": "µM"}, {"measurement": "GI50", "setting": "Hs-578T", "value": "> 100 µM (inactive)"}, {"measurement": "GI50", "setting": "LOX IMVI", "value": "> 100 µM (inactive)"}, {"measurement": "GI50", "setting": "M14", "value": "> 100 µM (inactive)"}, {"measurement": "GI50", "setting": "MCF7", "value": "> 100 µM (inactive)"}, {"measurement": "GI50", "setting": "Malme-3M", "value": "> 100 µM (inactive)"}, {"measurement": "GI50", "setting": "NCI-H226", "value": "> 100 µM (inactive)"}, {"measurement": "GI50", "setting": "NCI-H522", "value": "> 100 µM (inactive)"}, {"measurement": "GI50", "setting": "OVCAR-5", "value": "> 100 µM (inactive)"}, {"measurement": "GI50", "setting": "SK-MEL-2", "value": "65 µM (inactive)"}, {"measurement": "GI50", "setting": "SK-OV-3", "value": "> 100 µM (inactive)"}, {"measurement": "GI50", "setting": "SNB-19", "value": "> 100 µM (inactive)"}, {"measurement": "GI50", "setting": "SR", "value": "56 µM (inactive)"}, {"measurement": "GI50", "setting": "SW-620", "value": "> 100 µM (inactive)"}, {"measurement": "GI50", "setting": "TK-10", "value": "> 100 µM (inactive)"}]}, {"smiles": "COC(=O)[C@H]1ON2O[C@@H](O[C@H]3CCCC[C@@H]3C(C)(C)c3ccccc3)C[C@@H]3CC[C@H]1[C@@]32C", "values": [{"measurement": "GI50", "setting": "786-0", "value": "> 100 µM (inactive)"}, {"measurement": "GI50", "setting": "CCRF-CEM", "value": "> 100 µM (inactive)"}, {"measurement": "GI50", "setting": "DU-145", "value": "> 100 µM (inactive)"}, {"measurement": "GI50", "setting": "HCC 2998", "value": "> 100 µM (inactive)"}, {"measurement": "GI50", "setting": "HCT-15", "value": "> 100", "unit": "µM"}, {"measurement": "GI50", "setting": "Hs-578T", "value": "> 100 µM (inactive)"}, {"measurement": "GI50", "setting": "LOX IMVI", "value": "> 100 µM (inactive)"}, {"measurement": "GI50", "setting": "M14", "value": "> 100 µM (inactive)"}, {"measurement": "GI50", "setting": "MCF7", "value": "> 100 µM (inactive)"}, {"measurement": "GI50", "setting": "NCI-H226", "value": "> 100 µM (inactive)"}, {"measurement": "GI50", "setting": "NCI-H522", "value": "> 100 µM (inactive)"}, {"measurement": "GI50", "setting": "OVCAR-5", "value": "> 100 µM (inactive)"}, {"measurement": "GI50", "setting": "SK-OV-3", "value": "> 100 µM (inactive)"}, {"measurement": "GI50", "setting": "SNB-75", "value": "> 100 µM (inactive)"}, {"measurement": "GI50", "setting": "SR", "value": "> 100 µM (inactive)"}, {"measurement": "GI50", "setting": "SW-620", "value": "> 100 µM (inactive)"}, {"measurement": "GI50", "setting": "TK-10", "value": "> 100 µM (inactive)"}]}, {"smiles": "O=C(NC(Nc1ccc(F)c(Cl)c1)(C(F)(F)F)C(F)(F)F)C(C(F)(F)F)C(F)(F)F", "values": [{"measurement": "GI50", "setting": "786-0", "value": "30.5 µM (inactive)"}, {"measurement": "GI50", "setting": "CCRF-CEM", "value": "22.1 µM (inactive)"}, {"measurement": "GI50", "setting": "DU-145", "value": "27.5 µM (inactive)"}, {"measurement": "GI50", "setting": "HCC 2998", "value": "> 100 µM (inactive)"}, {"measurement": "GI50", "setting": "HCT-15", "value": 18.1, "unit": "µM"}, {"measurement": "GI50", "setting": "Hs-578T", "value": "17.6 µM (inactive)"}, {"measurement": "GI50", "setting": "LOX IMVI", "value": "12 µM (inactive)"}, {"measurement": "GI50", "setting": "M14", "value": "21.9 µM (inactive)"}, {"measurement": "GI50", "setting": "MCF7", "value": "33 µM (inactive)"}, {"measurement": "GI50", "setting": "Malme-3M", "value": "19.1 µM (inactive)"}, {"measurement": "GI50", "setting": "NCI-H226", "value": "24.1 µM (inactive)"}, {"measurement": "GI50", "setting": "NCI-H522", "value": "16.8 µM (inactive)"}, {"measurement": "GI50", "setting": "OVCAR-5", "value": "23.9 µM (inactive)"}, {"measurement": "GI50", "setting": "SK-MEL-2", "value": "16.6 µM (inactive)"}, {"measurement": "GI50", "setting": "SK-OV-3", "value": "52.7 µM (inactive)"}, {"measurement": "GI50", "setting": "SNB-19", "value": "30.9 µM (inactive)"}, {"measurement": "GI50", "setting": "SR", "value": "28.2 µM (inactive)"}, {"measurement": "GI50", "setting": "SW-620", "value": "22.1 µM (inactive)"}, {"measurement": "GI50", "setting": "TK-10", "value": "36.4 µM (inactive)"}]}, {"smiles": "O=C(N/C(=C/c1ccc(Cl)cc1Cl)c1nc2ccccc2s1)c1ccccc1", "values": [{"measurement": "GI50", "setting": "786-0", "value": "12.9 µM (inactive)"}, {"measurement": "GI50", "setting": "CCRF-CEM", "value": "4.72 µM (inactive)"}, {"measurement": "GI50", "setting": "DU-145", "value": "16.2 µM (inactive)"}, {"measurement": "GI50", "setting": "HCT-15", "value": 4.37, "unit": "µM"}, {"measurement": "GI50", "setting": "Hs-578T", "value": "12.1 µM (inactive)"}, {"measurement": "GI50", "setting": "LOX IMVI", "value": "5.32 µM (inactive)"}, {"measurement": "GI50", "setting": "M14", "value": "17.7 µM (inactive)"}, {"measurement": "GI50", "setting": "MCF7", "value": "16.2 µM (inactive)"}, {"measurement": "GI50", "setting": "Malme-3M", "value": "16.4 µM (inactive)"}, {"measurement": "GI50", "setting": "NCI-H226", "value": "13.6 µM (inactive)"}, {"measurement": "GI50", "setting": "NCI-H522", "value": "8.34 µM (inactive)"}, {"measurement": "GI50", "setting": "OVCAR-5", "value": "17.3 µM (inactive)"}, {"measurement": "GI50", "setting": "SK-MEL-2", "value": "17.7 µM (inactive)"}, {"measurement": "GI50", "setting": "SK-OV-3", "value": "24.3 µM (inactive)"}, {"measurement": "GI50", "setting": "SNB-19", "value": "19.5 µM (inactive)"}, {"measurement": "GI50", "setting": "SNB-75", "value": "17.9 µM (inactive)"}, {"measurement": "GI50", "setting": "SR", "value": "9.27 µM (inactive)"}, {"measurement": "GI50", "setting": "SW-620", "value": "10.7 µM (inactive)"}, {"measurement": "GI50", "setting": "TK-10", "value": "21 µM (inactive)"}]}, {"smiles": "Oc1cc(-c2cccc(Cl)c2)nc2cc3c(cc12)OCO3", "values": [{"measurement": "GI50", "setting": "786-0", "value": "0.294 µM (active)"}, {"measurement": "GI50", "setting": "CCRF-CEM", "value": "0.519 µM (active)"}, {"measurement": "GI50", "setting": "DU-145", "value": "0.284 µM (active)"}, {"measurement": "GI50", "setting": "HCC 2998", "value": "1.31 µM (inactive)"}, {"measurement": "GI50", "setting": "HCT-15", "value": 0.269, "unit": "µM"}, {"measurement": "GI50", "setting": "Hs-578T", "value": "0.255 µM (active)"}, {"measurement": "GI50", "setting": "LOX IMVI", "value": "0.305 µM (active)"}, {"measurement": "GI50", "setting": "M14", "value": "0.179 µM (active)"}, {"measurement": "GI50", "setting": "MCF7", "value": "2.83 µM (inactive)"}, {"measurement": "GI50", "setting": "Malme-3M", "value": "0.138 µM (active)"}, {"measurement": "GI50", "setting": "NCI-H522", "value": "0.334 µM (active)"}, {"measurement": "GI50", "setting": "OVCAR-5", "value": "18.8 µM (inactive)"}, {"measurement": "GI50", "setting": "SK-MEL-2", "value": "0.207 µM (active)"}, {"measurement": "GI50", "setting": "SK-OV-3", "value": "0.326 µM (active)"}, {"measurement": "GI50", "setting": "SNB-19", "value": "0.726 µM (active)"}, {"measurement": "GI50", "setting": "SNB-75", "value": "0.258 µM (active)"}, {"measurement": "GI50", "setting": "SR", "value": "0.342 µM (active)"}, {"measurement": "GI50", "setting": "SW-620", "value": "0.351 µM (active)"}, {"measurement": "GI50", "setting": "TK-10", "value": "6.31 µM (inactive)"}]}]}
